Data from patent US6472526B1, “Imidazole derivatives having an inhibitory activity for farnesyl transferase and process for preparation thereof” (LG Chemical Ltd., priority 1997, dated 2002).

Columns and labels:
[1] = target: T1, Ras farnesyl transferase (Homo sapiens, UniProt P49354+P49356); assay: In vitro inhibitory activity for Ras farnesyl transferase, H-Ras substrate; assay type: biochemical; conditions: recombinant farnesyl transferase 4.5 nM, Ras substrate protein 1.5 μM, tritium-farnesylpyrophosphate 0.15 μM, 30 minutes at 37° C.; read-out: H-Ras IC50
T1 construct: made in house

[2] = target: T1, Ras farnesyl transferase; assay: In vitro inhibitory activity for Ras farnesyl transferase, K-Ras substrate; assay type: biochemical; conditions: in vitro farnesyl transferase assay, K-Ras; read-out: K-Ras IC50
[3] = target: T2, Ras farnesyl transferase (Rattus norvegicus, UniProt Q02293+Q04631); assay: In vivo (cellular) inhibitory activity for Ras farnesyl transferase, Rat2 cell line which expresses C-Harvey-Ras protein; assay type: cell-based; conditions: Rat2 cell line expressing C-Harvey-Ras; concentration inhibiting 50% of farnesyl bonding of Ras protein; read-out: H-Ras CIC50
T2 construct: endogenous in cells; host or cells: Rat2 fibroblasts transformed with H-Ras or with an H-Ras/K-Ras C-terminus fusion
Method in brief: (§1)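 Farnesylated versus unfarnesylated Ras bands were measured by autoradiography after Y13-259 immunoprecipitation and SDS-PAGE, giving CIC50 as 50% inhibition of farnesylation. Rat2 cells expressing H-Ras or an H-Ras fusion with K-Ras polybasic C-terminus got compound (1% DMSO), then [35S]methionine from 4 h onward for 20 h.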

[4] = target: T2, Ras farnesyl transferase; assay: In vivo (cellular) inhibitory activity for Ras farnesyl transferase, Rat2 cell line transformed with fused protein of H-Ras substituted with polybasic lysine domain at C-terminus of K-Ras; assay type: cell-based; conditions: Rat2 cell line transformed with H-Ras fused with polybasic lysine domain of K-Ras C-terminus; concentration inhibiting 50% of farnesyl bonding; read-out: K-Ras CIC50
Method in brief: as §1

IC50 [1] [µM] | IC50 [2] [µM] | IC50 [3] [µM] | IC50 [4] [µM] | SMILES
0.02 | 0.2 | 0.1 | 40 | COCCN(C)C(=O)c1cn(Cc2cncn2Cc2ccc(C#N)cc2)nc1-c1cccc2ccccc12 [Compound 156, 1-[1-(4-Cyanobenzyl)-1H-imidazol-5-ylmethyl]-4-[N-(2-methoxyethyl)-N-methyl]-carbamoyl-3-(naphthalen-1-yl)-1H-pyrazole]
0.047 | 0.75 | 0.1 to 1 | 10 to 100 | CN(C)CCN(C)C(=O)c1cn(Cc2cncn2Cc2ccc3c(c2)OCO3)cc1-c1cccc2ccccc12 [Compound 4, 3-{N-[2-(N,N-Dimethylamino)ethyl]-N-methyl}carbamoyl-1-[1-(3,4-methylendioxybenzyl)-1H-imidazol-5-ylmethyl]-4-(naphthalen-1-yl)-1H-pyrrole]
0.00065 | 0.002 | 0.025 | 10 to 50 | CN1CCN(C(=O)c2cn(Cc3cncn3Cc3ccccc3Cl)cc2-c2cccc3ccccc23)CC1 [Compound 133, 1-[1-(2-Chlorobenzyl)-1H-imidazol-5-yl]methyl-3-(4-methylpiperazin-1-yl)carbonyl-4-(naphthalen-1-yl)-1H-pyrrole]
0.002 | 0.003 | 0.015 | 10 to 50 | CN1CCN(C(=O)c2cn(Cc3cncn3CCc3cccc(Cl)c3)cc2-c2cccc3ccccc23)CC1 [Compound 26, 1-[1-(3-Chloro)phenethyl-1H-imidazol-5-yl]methyl-3-[4-methylpiperazin-1-yl]carbonyl-4-(naphthalen-1-yl)-1H-pyrrole]
0.001 | 0.004 | 0.012 | 5 | CN1CCN(C(=O)c2cn(Cc3cncn3Cc3ccc(Cl)cc3)cc2-c2cccc3ccccc23)CC1 [Compound 126, 1-[1-(4-Chlorobenzyl)-1H-imidazol-5-yl]methyl-3-[4-methylpiperazin-1-yl]carbonyl-4-(naphthalen-1-yl)-1H-pyrrole]
0.45 | 22 | 1 to 50 | > 50 | COC(=O)[C@H](CC(C)C)NC(=O)c1cn(Cc2cncn2Cc2ccc(C#N)cc2)cc1-c1cccc2ccccc12 [Compound 102]
0.002 | 0.003 | 0.02 | 10 to 50 | COCCN(C)C(=O)c1cn(Cc2cncn2CCc2ccc(Cl)cc2)cc1-c1cccc2ccccc12 [Compound 39, 1-[1-(4-Chloro)phenethyl-1H-imidazol-5-yl]methyl-3[N-(2-methoxyethyl)-N-methyl]carbamoyl-4-(naphthalen-1-yl)-1H-pyrrole]
0.0016 | 0.0024 | 0.025 | 10 to 50 | Cc1ccc(Cn2cncc2Cn2cc(C(=O)N3CCN(C)CC3)c(-c3cccc4ccccc34)c2)cc1 [Compound 136]
0.002 | 0.003 | 0.025 | 10 to 50 | COCCN(C)C(=O)c1cn(Cc2cncn2CCc2ccccc2OC)cc1-c1cccc2ccccc12 [Compound 17, 3-[N-(2-Methoxyethyl)-N-methyl]carbamoyl-1-[1-(2-methoxy)phenethyl-1H-imidazol-5-yl]methyl-4-(naphthalen-1-yl)-1H-pyrrole]
0.0035 | 0.011 | 0.025 | 10 to 50 | COCCN(C)C(=O)c1cn(Cc2cncn2Cc2cccc(Cl)c2)cc1-c1cccc2ccccc12 [Compound 132, 1-[1-(3-Chlorobenzyl)-1H-imidazol-5-yl]methyl-3-[N-(2-methoxyethyl)-N-methyl]carbamoyl-4-(naphthalen-1-yl)-1H-pyrrole]
0.004 | 0.062 | 0.03 | < 50 | COCCN(C)C(=O)c1cn(Cc2cncn2CC2CCCCC2)cc1-c1cccc2ccccc12 [Compound 116, 1-(1-Cyclohexylmethyl-1H-imidazol-5-yl)methyl-3-[N-(2-methoxyethyl)-N-methyl]carbamoyl-4-(naphthalen-1-yl)-1H-pyrrole]
0.01 | 0.01 to 0.1 | 0.1 to 1 | 10 to 100 | N#Cc1ccc(Cn2cncc2Cn2cc(C(=O)c3ccsc3)c(-c3cccc4ccccc34)c2)cc1 [Compound 74]

The remaining lines, values behind:

SMILES | IC50 [1] [µM] | IC50 [2] [µM] | IC50 [3] [µM] | IC50 [4] [µM]
Cn1cnc(Cn2cc(C(=O)c3ccc(F)cc3)c(-c3cccc4ccccc34)c2)c1 [Compound 78, 3-(4-Fluorobenzoyl)-1-(1-methyl-1H-imidazol-4-yl)methyl-4-(naphthalen-1-yl)-1H-pyrrole] | 0.0045 | 0.2 | 0.1 | 10 to 100
O=C(c1cn(Cc2cncn2Cc2ccc(Br)cc2)nc1-c1cccc2ccccc12)N1CCOCC1 [Compound 160, 1-[1-(4-Bromobenzyl)-1H-imidazol-5-ylmethyl]-4-(morpholin-4-yl)carbonyl-3-(naphthalen-1-yl)-1H-pyrazole] | 0.3 | 3 | 1.5 | 40
O=C(c1cn(Cc2c[nH]cn2)cc1-c1ccnc2ccccc12)N1CCOCC1 [Compound 96] | 0.23 | 0.1 to 10 | 1 to 50 | 10 to 100
CN1CCN(C(=O)c2cn(Cc3cncn3CCc3ccc(Cl)cc3)cc2-c2cccc3ccccc23)CC1 [Compound 40] | 0.002 | 0.003 | 0.025 | 10 to 50
C[C@@H](c1ccccc1)n1cncc1Cn1cc(C(=O)N2CCN(C)CC2)c(-c2cccc3ccccc23)c1 [Compound 13, 1-[1-((S)-α-Methylbenzyl)-1H-imidazol-5-ylmethyl]-3-(4-methylpiperazin-1-yl)carbonyl-4-(naphthalen-1-yl)-1H-pyrrole] | 0.00085 | 0.005 | 0.0125 | 10 to 50
O=C(c1ccc(F)cc1)c1cn(Cc2c[nH]cn2)cc1-c1cccc2ccccc12 [Compound 58] | 0.025 | 0.1 to 10 | 1 to 50 | 10 to 100
CSCCOc1ccc(C(=O)c2cn(Cc3c[nH]cn3)cc2-c2cccc3ccccc23)cc1 [Compound 63] | 0.23 | 0.1 to 10 | 1 to 50 | 10 to 100
O=C(c1cn(CCn2ccnc2)cc1-c1cccc2ccccc12)N1CCOCC1 [Compound 106] | 0.9 | 10 to 100 | 1 to 50 | 10 to 100
CN1CCN(C(=O)c2cn(Cc3cncn3Cc3cccc4ccccc34)cc2-c2cccc3ccccc23)CC1 [Compound 7, 3-(4-Methylpiperazin-1-yl)carbonyl-4-(naphthalen-1-yl)-1-[1-(naphthalen-1-ylmethyl)-1H-imidazol-5-ylmethyl]-1H-pyrrole] | 0.0006 | 0.0022 | 0.025 | 10 to 50
CN1CCN(C(=O)c2cn(Cc3cncn3CCCc3ccccc3)cc2-c2cccc3ccccc23)CC1 [Compound 28] | 0.001 | 0.002 | 0.02 | 10 to 30
COc1ccc(C(=O)c2cn(Cc3c[nH]cn3)cc2-c2cccc3ccccc23)cc1 [Compound 54] | 0.39 | 0.1 to 10 | 1 to 50 | 10 to 100
CSCc1cccc(C(=O)c2cn(Cc3c[nH]cn3)cc2-c2cccc3ccccc23)c1 [Compound 64] | 0.16 | 0.1 to 10 | 1 to 50 | 10 to 100
CN1CCN(C(=O)c2cn(Cc3cncn3CCc3ccc(F)cc3)cc2-c2cccc3ccccc23)CC1 [Compound 36, 1-[1-(4-Fluoro)phenethyl-1H-imidazol-5-yl]methyl-3-[4-methylpiperazin-1-yl]carbonyl-4-(naphthalen-1-yl)-1H-pyrrole] | 0.001 | 0.002 | 0.025 | 10 to 50
CN1CCN(C(=O)c2cn(Cc3cncn3CCc3cccc4ccccc34)cc2-c2cccc3ccccc23)CC1 [Compound 32, 3-[4-Methylpiperazin-1-yl]carbonyl-4-(naphthalen-1-yl)-1-{1-[2-(naphthalen-1-yl)ethyl]-1H-imidazol-5-yl}methyl-1H-pyrrole] | 0.002 | 0.003 | 0.015 | 10 to 50
CCOC(=O)c1nc(Cc2cnc[nH]2)oc1-c1cccc2ccccc12 [Compound 142, 4-Ethoxycarbonyl-2-(1H-imidazol-5-ylmethyl)-5-(naphthalen-1-yl)oxazole] | 12 | > 50 | > 50 | > 50
O=C(c1nc(Cc2cnc[nH]2)oc1-c1cccc2ccccc12)N1CCOCC1 [Compound 143, 2-(1H-Imidazol-5-ylmethyl)-4-(morpholin-4-yl)carbonyl-5-(naphthalen-1-yl)oxazole] | 1.2 | > 50 | 20 | > 50
O=C(c1cccc(Br)c1)c1cn(Cc2c[nH]cn2)cc1-c1cccc2ccccc12 [Compound 48] | 0.15 | 10 | 1 to 50 | 10 to 100
O=C(c1ccc(F)cc1F)c1cn(Cc2c[nH]cn2)cc1-c1cccc2ccccc12 [Compound 59] | 0.57 | 0.1 to 10 | 1 to 50 | 10 to 100
